Here are results for one substance from US20260200982A1, “HER RECEPTOR DERIVED PEPTIDES AND METHODS OF USE THEREOF” (Ramot at Tel-Aviv University Ltd., priority 2022, published 2026).

In experiment [1] the test system is MIA PaCa-2 pancreatic cancer cells. Put plainly: Methylene blue viability assay, MIA PaCa-2. It counts as cell-based, human. Conditions: MiaPaCa2; 72 hours; FIGS. 4B and 4C; read-out: IC50 (cell viability). The text has this:
Cell lines—Human breast cancer cell lines SKBR3 [Peles E et al. EMBO J. (1993) 12(3):961-71] and MCF7 [Faigenbloom L et al., Mol Syst Biol. (2015) 11(12):845] and human glioblastoma U87 [Goldberg L et al. Cancer Res. (2006) 66(24):11709-17] cell line, as well as Rat-1 fibroblast cells and H-Ras-transformed Rat-1 cells (EJ cells) [Marom M et al. J Biol Chem. (1995) 270(38):22263-70] and human Panc-1 and MIA PaCa-2 pancreatic cell lines (Rak R et al. Oncoscience. 2014 1(1):39-48; Weisz B et al. Oncogene (1999) 18, 2579±2588) were all grown in Dulbecco's modified Eagle's medium (DMEM; Biological Industries, Beithaemek, Israel). Human colorectal cancer cell lines DLD-1 (ATTC Cat No. CCL-221), HCT-116 (ATTC Cat No. CCL-247) and LNCaP prostate cancer cells were grown in Roswell Park Memorial Institute 1640 (RPMI 1640) medium and McCoy's 5A media, respectively (Sigma-Aldrich). All media were supplemented with antibiotics and 10% heat-inactivated fetal bovine serum (FBS; Gibco). Human breast cell line MCF10A [Bott A et al. Oncotarget. […]
Methylene blue viability assay—Cells were plated in 96-wells plates at cell densities of 1.5×10^3 (EJ, DLD-1), 3×10^3 (Rat-1, HCT-116, U87), 5×10^3 (SKBR3, MCF7) and 6×10^3 (MCF10A) cells/well. […] IC-50 values were calculated using a non-linear regression model (logarithmic inhibitor vs. normalized response-variable slope) with the GraphPad Prism 6 software.

The test system of experiment [2] is Panc-1 cells. Briefly: Colony formation assay, Panc-1. Conditions: 8 μM, 72 hours, FIG. 8. The experiment is classed as cell-based, human. As for the experimental part: (§1) Colony formation assay—Cells were plated onto 12-well plate (6×10^4 cells/well) and treated with either PBS or myr-NLS at the IC50 concentration for 3 days. Cells were collected and replated in 10-cm plates (at 3 dilutions of 1:10, 1:20 and 1:40). After 7-14 days when visible and yet separated colonies were formed, the cells were fixed with 0.1% acetic acid in PBS, and stained with 0.4% crystal violet in 0.1% acetic acid. Total colonies area was calculated using the ImageJ program.
In order to test the effect of myr-NLS on cell tumorigenicity, a colony formation assay was performed. To this end, Panc-1 and MIA PaCa-2 cells were treated or untreated for 72 hours with IC50 dose of myr-NLS (SEQ ID NO: 5, 8 μM and 4.5 μM respectively). Cells were then seeded at the same dilutions in new plates until colonies were formed.

Experiment [3] has as its system DLD-1 cells. Put plainly: Colony formation assay, DLD-1. The experiment is classed as cell-based, human. To be noted: 20 μM, 72 hours, FIG. 12. The procedure:
as §1
In addition, a colony formation assay was conducted to further examine the anti-tumor effect of the myr-NLS (SEQ ID NO: 5), myr-NLS2 (SEQ ID NO: 15) and myr-NLS4 (SEQ ID NO: 17) peptides. To this end, DLD-1 cells were treated or untreated for 72 hours with 20 μM of the myr-peptides. Cells were then seeded at the same dilutions in new plates until colonies were formed.

The test system of experiment [4] is DLD-1 colon cancer tumor xenografts. Briefly: Colon Tumor Growth in Nude Mice. Conditions: DLD-1 xenografts, 25 μg/100 μl PBS intraperitoneal daily, FIGS. 14A-C. It counts as in vivo. The procedure:
Colon Tumor Growth in Nude Mice—Nude CD1-Nu mice (25-30 g) housed in barrier facilities on a 12-h light/dark cycle one week prior to the injection of tumor cells (day zero). On day zero, 5×10^6 DLD-1 cells were implanted subcutaneously just above the right femoral joint. Tumor size was measured every 3-4 days. When the tumors were apparently seen, the animals were divided randomly into three groups of mice [control vehicle treated, myr-NLS1 (SEQ ID NO: 5), myr-NLS4 (SEQ ID NO: 17)]. Treatment was performed by intraperitoneal injection of 25 μg in 100 μl PBS every day. Mice were weighed and tumors size was measured 3 times a week. At the end of the experiment, the mice were sacrificed, and the tumors were dissected and used for further analysis.

The target of experiment [5] is nucleolin (Homo sapiens, UniProt P19338). Put plainly: Immunoblotting of cell lysates, nucleolin level. It counts as cell-based. Also on record: endogenous in cells; host or cells: DLD-1, Panc-1. Conditions: DLD-1 or Panc-1 cells; 24 hours; 25 μM and 10 μM; FIGS. 13A-B. The procedure: Lysate preparation and immunoblotting—Cells were seeded at cell densities of 1.5×10^5 (DLD-1), 1.8×10^5 (HCT-116) and 2.5×10^5 (SKBR3) cells/well, treated as indicated and grown for 24 hours. Following, cells were lysed in solubilization buffer; the lysates were cleared by centrifugation and a boiling gel sample buffer was added. Proteins were resolved by SDS-polyacrylamide gel electrophoresis through 10% polyacrylamide gels, and were electrophoretically transferred to nitrocellulose membranes. Membranes were blocked in TBST buffer containing 6% milk, and blotted with primary antibodies. Following, a secondary antibody linked to horseradish peroxidase was added. Immunoreactive bands were detected with the enhanced chemiluminescence reagent Immobilon Crescendo Western HRP substrate (WBLUR0100; Merck Millipore).
Chain of nucleolin (P19338 whole entry): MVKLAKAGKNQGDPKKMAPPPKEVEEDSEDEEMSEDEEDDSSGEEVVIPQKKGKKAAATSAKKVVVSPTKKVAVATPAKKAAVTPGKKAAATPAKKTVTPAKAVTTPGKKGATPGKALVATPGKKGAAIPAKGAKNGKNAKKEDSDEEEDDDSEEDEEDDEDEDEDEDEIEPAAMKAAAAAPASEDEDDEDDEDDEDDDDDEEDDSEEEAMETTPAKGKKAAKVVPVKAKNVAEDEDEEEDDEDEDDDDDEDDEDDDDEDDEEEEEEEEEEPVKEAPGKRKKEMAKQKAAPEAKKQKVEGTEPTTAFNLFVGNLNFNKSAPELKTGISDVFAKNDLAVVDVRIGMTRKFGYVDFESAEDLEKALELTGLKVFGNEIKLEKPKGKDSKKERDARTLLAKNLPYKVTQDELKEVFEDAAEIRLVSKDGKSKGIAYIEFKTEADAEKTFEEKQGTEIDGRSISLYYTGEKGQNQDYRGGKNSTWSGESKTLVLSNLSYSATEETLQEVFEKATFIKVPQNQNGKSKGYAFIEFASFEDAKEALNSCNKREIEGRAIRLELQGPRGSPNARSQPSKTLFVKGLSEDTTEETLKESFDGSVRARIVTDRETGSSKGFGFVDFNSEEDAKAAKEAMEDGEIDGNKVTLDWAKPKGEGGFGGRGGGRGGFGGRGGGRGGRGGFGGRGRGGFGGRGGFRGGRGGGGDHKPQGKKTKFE
(In western blotting, separated proteins are transferred to a membrane and probed.)

The star is where a group is joined. Myristoyl = CCCCCCCCCCCCCC(=O)*

In the case of “Myr-RRRHIVRKRTLRRLL-OH (Myristoyl-RRRHIVRKRTLRRLL-OH; SMILES CCCCCCCCCCCCCC(=O)N[C@@H](CCCNC(=N)N)C(=O)N[C@@H](CCCNC(=N)N)C(=O)N[C@@H](CCCNC(=N)N)C(=O)N[C@@H](Cc1c[nH]cn1)C(=O)N[C@H](C(=O)N[C@H](C(=O)N[C@@H](CCCNC(=N)N)C(=O)N[C@@H](CCCCN)C(=O)N[C@@H](CCCNC(=N)N)C(=O)N[C@H](C(=O)N[C@@H](CC(C)C)C(=O)N[C@@H](CCCNC(=N)N)C(=O)N[C@@H](CCCNC(=N)N)C(=O)N[C@@H](CC(C)C)C(=O)N[C@@H](CC(C)C)C(=O)O)[C@@H](C)O)C(C)C)[C@@H](C)CC) [myr-NLS]”, in experiment [1], the IC50 is 3.95 µM. The “colony formation (total colonies area)” value in experiment [2] is “fewer and smaller colonies”; in experiment [3] it was “fewer and smaller colonies”. The “tumor growth (tumor size, tumor weight)” value in experiment [4] is reported as “significantly reduced tumor cell growth”. In addition, the “levels of expression of nucleolin” value in experiment [5] is on record as “reduced the levels of expression”.

The IC50 is the midpoint of a concentration-inhibition curve.
